Experimental data as given in paper PMC4769088, “Antifungal Activity and Action Mechanism of Histatin 5-Halocidin Hybrid Peptides against Candida ssp” (PLoS ONE, 2016).
Where a SMILES comes first, the peptide text is derived from it. Bridges are numbered along the chain shown (N, C = ends). Roman numbers before positions name the chains, in order.

Tested on: all tested Candida strains
Type: cell-based
Details: 4 h
Experimental: To determine the candidacidal activity of the peptides, we used Candida strains obtained from the Culture collection of antimicrobial resistant microbes at Seoul Women’s University in Korea. These included three Candida albicans (CCARM 14020, 14021, 14022), Candida guillermondi and Candida tropicalis. In addition, Candida albicans SC5413 was kindly provided by Dr Jeong-Yoon Kim at the Department of Microbiology & Molecular Biology, Chungnam University, Korea. Yeast were cultured overnight at 30°C in 10 ml of yeast extract-peptone-dextrose (YPD) broth (Qbiogene), then diluted in 10 ml of YPD broth to OD600 = 0.2 and grown for an additional 4 h with shaking at 30°C until OD600 = 0.8 in order to obtain mid-log phase cultures. The peptides (Hst 5, P113, HHP1, HHP2, PH1, PH2, di-PH1, di-PH2, WP1, di-WP2, di-15Hc and di-18Hc) in this study were synthesized by using standard solid-phase synthesis protocols and were purified by reversed-phase high-performance liquid chromatography at Anygen Inc. (Korea). FITC-labeled peptides (F-Hst5, F-P113, F-HHP1, F-di-PH2, F-di-WP2 and F-di-18Hc) were also synthesized by 6-aminohexnoic acid linker at Anygen (Korea) for confocal experiments.
The candidacidal activities of the peptides were tested by using standard microdilution plate assays, radial diffusion assays and broth dilution assay slightly modified from the procedure recommended by the National Committee for Clinical Laboratory Standards. For the candidacidal assays, C. albicans cells were grown in YPD medium and washed twice with 10 mM sodium phosphate buffer (NaPB; Na2HPO4, NaH2PO4, pH 7.4). The cells (1 x 10^6) were then mixed with different concentrations of peptides and incubated at 30°C with constant shaking for 60 min. For energy depletion experiments, cells were pre-incubated with 10 mM NaPB containing 5 mM NaN3 at 30°C for 60 min before the addition of peptides. The cell suspensions were diluted in 10 mM NaPB and aliquots of 500 cells were spread onto YPD agar plates then incubated for 24 h at 30°C to visualize the surviving colonies. Cell survival was expressed as a percentage of that for the control, and the loss of viability was calculated as [1 x (number of colonies from peptide-treated cells/number of colonies from control cells)] x 100. Candidacidal assays were performed in triplicate. For the radial diffusion assay, C. albicans cells were grown in YPD medium overnight and washed twice with 10 mM NaPB. Washed yeast-phase C. albicans cells (1 x 10^6 CFU) were trapped in thin underlay gels containing 9 mM sodium phosphate, 1 mM sodium citrate buffer, 1% (wt/vol) agarose (A6013; Sigma), and 0.3 mg of Sabouraud dextrose broth (Difco)/ml. After incubation at 37°C for 3 h, a 10 ml overlay gel of 1% agarose and 6% Sabouraud dextrose broth was poured on the underlay gel and then the plates were incubated overnight at 37°C. The clear-zone diameters were measured to the nearest 0.1 mm and graphed against the peptide concentration. Zone diameters were expressed in units (0.1 mm = 1 unit). For the broth dilution assay, the Candida strains were cultured in LYM broth for 18 h at 30°C. The numbers of yeasts were counted using a hemocytometer. Stock peptide solutions were prepared to a concentration of 320 μg/ml in distilled water, and were then serially diluted twofold, to 5 μg/ml. 100 μl aliquots of the diluted culture media containing candida cells (1 x 10^3) were dispensed into the wells of 96-well polypropylene microtiter plates (Costar 3879, Corning, NY), to which peptide solution (11 μl) was then added. In the experiments conducted to assess the candidacidal activity of peptides in the presence of salt, we used LYM supplemented with 150 mM NaCl for the culture medium, which was mixed with the peptide solution. The antifungal activities were evaluated after 24 h of incubation at 30°C by the observation of visible turbidity the wells. […]

Structure (SMILES) | MIC values
CC(C)C[C@H](NC(=O)[C@@H](N)Cc1c[nH]c2ccccc12)C(=O)N[C@@H](CC(N)=O)C(=O)N[C@@H](C)C(=O)N[C@@H](CCCCN)C(=O)N[C@@H](CCCNC(=N)N)C(=O)N[C@@H](Cc1c[nH]cn1)C(=O)N[C@@H](Cc1c[nH]cn1)C(=O)NCC(=O)N[C@@H](Cc1ccc(O)cc1)C(=O)N[C@@H](CCCCN)C(=O)N[C@@H](CSSC[C@H](NC(=O)[C@H](CCCCN)NC(=O)[C@H](Cc1ccc(O)cc1)NC(=O)CNC(=O)[C@H](Cc1c[nH]cn1)NC(=O)[C@H](Cc1c[nH]cn1)NC(=O)[C@H](CCCNC(=N)N)NC(=O)[C@H](CCCCN)NC(=O)[C@H](C)NC(=O)[C@H](CC(N)=O)NC(=O)[C@H](CC(C)C)NC(=O)[C@@H](N)Cc1c[nH]c2ccccc12)C(=O)N[C@@H](CCCCN)C(=O)N[C@@H](Cc1ccccc1)C(=O)N[C@@H](Cc1c[nH]cn1)C(N)=O)C(=O)N[C@@H](CCCCN)C(=O)N[C@@H](Cc1ccccc1)C(=O)N[C@@H](Cc1c[nH]cn1)C(N)=O [di-WP2] (I: H-WLNAKRHHGYKCKFH-NH2 / II: H-WLNAKRHHGYKCKFH-NH2; disulfide I:12-II:12 (inferred); N-terminus assumed) | 2 to 4 µg/mL
CC(C)C[C@H](NC(=O)CNC(=O)[C@H](Cc1c[nH]cn1)NC(=O)[C@H](Cc1c[nH]cn1)NC(=O)[C@H](CCCNC(=N)N)NC(=O)[C@H](CCCCN)NC(=O)[C@H](C)N)C(=O)N[C@@H](CC(N)=O)C(=O)N[C@@H](CSSC[C@H](NC(=O)[C@H](CC(N)=O)NC(=O)[C@H](CC(C)C)NC(=O)CNC(=O)[C@H](Cc1c[nH]cn1)NC(=O)[C@H](Cc1c[nH]cn1)NC(=O)[C@H](CCCNC(=N)N)NC(=O)[C@H](CCCCN)NC(=O)[C@H](C)N)C(=O)N[C@@H](C)C(=O)N[C@@H](CCCCN)C(=O)N[C@@H](Cc1ccccc1)C(=O)N[C@@H](Cc1c[nH]cn1)C(N)=O)C(=O)N[C@@H](C)C(=O)N[C@@H](CCCCN)C(=O)N[C@@H](Cc1ccccc1)C(=O)N[C@@H](Cc1c[nH]cn1)C(N)=O [di-PH2] (I: H-AKRHHGLNCAKFH-NH2 / II: H-AKRHHGLNCAKFH-NH2; disulfide I:9-II:9 (inferred); N-terminus assumed) | 1 to 2 µg/mL
